Literature values in patent publication US20040248861A1, “Modified delta5-androstenes having improved bioavailability” (priority 2003, published 2004).

What was measured:
[1] = single transdermal dose of 25 mg
[2] = monkeys, very high doses (equivalent to about 70 grams/day for a human)
[3] = 200 mg/day for 28 days
[4] = supplement to diet
flu viruses = conditions: mice infected with flu viruses; to some of the viruses
virus similar to HIV = conditions: doses as low as 8 mg/kg/day
[5] = patients with normal adrenal function taking supplemental DHEA
[6] = not given; remark: listed apart in the source

C[C@]12CC[C@H](O)CC1=CC(=O)[C@@H]1[C@@H]2CC[C@]2(C)C(=O)CC[C@@H]12 [7-keto-DHEA, 7-keto-dehydroepiandrosterone]
blood levels of HDL-cholesterol [1]: improved | salivation [2]: caused excess salivation | safety problems in clinical trials [3]: no safety problems | T3 thyroid stimulating hormone [4]: increased | body fat [4]: statistically significant decreased | bodyweight [4]: statistically significant decreased | anti-viral antibodies (flu viruses): increase | bodyweight (virus similar to HIV): regained bodyweight | metabolism to estrogens or testosterone (in vivo): does not metabolize | estradiol levels in the blood (supplementary 7-keto-DHEA): decrease | testosterone levels in the blood (supplementary 7-keto-DHEA): decrease

C[C@]12CC[C@H](O)CC1=CC[C@@H]1[C@@H]2CC[C@]2(C)C(=O)CC[C@@H]12 [DHEA, dehydroepiandrosterone]
acne (share of patients) [5]: over 50%

C[C@]12CC[C@H]3[C@@H](CCC4=CC(=O)CC[C@@]43C)[C@@H]1CC[C@@H]2O [free testosterone, testosterone]
effect on serum levels of testosterone ([6]; oral, equivalent dose (63 mg)): no noticeable effect

CCCCCCCCCCC(=O)O[C@H]1CC[C@H]2[C@@H]3CCC4=CC(=O)CC[C@]4(C)[C@H]3CC[C@]12C [testosterone undecanoate]
increase in serum levels of testosterone ([6]; single oral dose of 100 mg, dissolved in oil): 2.3 fold
